The values that follow come from patent publication US10308618B2, “Blue light cutting optical material comprising a benzotriazole UV absorber” (ESSILOR INTERNATIONAL, priority 2016, dated 2019).

A short description of data set [1]: Solubilization of the benzotriazole UV absorber in the ISO monomer. It counts as physicochemical. To be noted: in isocyanate monomer, compared with comparative benzotriazole VII. The method, then: For polythiourethane matrix, solubility during processing and compatibility of inventive and comparative benzotriazoles were assessed in two stages. First, initial solubilization of the benzotriazole UV absorber in the isocyanate monomer was assessed.

A short description of data set [2]: Transmission spectra: transmittance and light cut-off wavelength. It counts as physicochemical. From the text: The light cut-off wavelength of the optical material is preferably higher than or equal to 400 nm, more preferably higher than or equal to 405 nm, and even more preferably higher than or equal to 410 nm. It is preferably lower than 465 nm, more preferably lower than 450 nm. In the present disclosure, the light cut-off wavelength is defined as the wavelength below which light transmission becomes lower than 1%. In other words, it is the highest wavelength for which the transmittance is lower than 1%. The higher the light cut-off wavelength, the better the blue light cutting properties.
In the present description, unless otherwise specified, optical transmittances/transmissions are measured at the center of the optical article for a thickness ranging from 0.7 to 2 mm, preferably 2 mm, at normal incidence. As used herein, optical transmittance within a wavelength range is an average of light transmitted within this range and is not weighted according to the sensitivity of the eye at each wavelength of the range, unless otherwise specified. Last, optical transmittance is measured for optical articles having no coatings, in particular no antireflective coatings.
The light cut-off wavelength was determined from the transmission spectra, which are shown on FIGS. 1 and 2. […]

For `CCCCCCCCOC(=O)CCc1cc(-n2nc3ccc(Cl)cc3n2)c(O)c(C(C)(C)C)c1` [Benzotriazole IV, n-octyl-3-[3-tert-butyl-4-hydroxy-5-(5-chloro-2H-benzotriazol-2-yl)phenyl] propionate], the “Dissolution properties” value in data set [1] is given as “improved dissolution properties”.
As to “octyl-3-[3-tert-butyl-4-hydroxy-5-(2H-benzotriazol-2-yl)-phenyl] propionate branched and linear alkyl esters [Eversorb® 82]”, the “optical transmittance for each light wavelength ranging from 280 to 400 nm” value in data set [2] (2-mm thick layer of material) is “lower than 1%”. Also, the “T (%) at 430 nm” value in data set [2] (2 mm thick material, 430 nm) was “higher than 65%”.
